For data set [1], the system named is primary rat hepatocytes. In words: Hepatocyte morphology / cell spreading (scanning electron micrographs). The data set is classed as cell-based. To be noted: 24 hours. The source says: PKA inhibition also had surprising effects on cell morphology. It has been proposed that malleable substrates such as collagen gel are unable to promote cell spreading because it lacks sufficient mechanical strength to resist contractile forces applied by the cell to its adhesion sites.

Another data set deals with p42/44 ERKs. In words: Phosphorylation of p42/44 ERKs by Western blot. To be noted: hepatocytes on collagen gel for 50 hr, with H89. The data set is classed as cell-based, rat. On the procedure: (§1) FIG. 2. Effects of PKA inhibition on morphology and cell cycle progression on collagen gel. (A) PKA activity was assessed in hepatocytes cultured on gel or film. In vitro kinase assay was performed; DPM=total ^32P-incorporation, minus counts from sample without substrate. […] [^3H]Thymidine incorporation was assessed from 48-96 hr. (C) Phosphorylation of p42/44 ERKs was determined in hepatocytes cultured on collagen gel for 50 hr by Western blot using a phospho-specific p42/44 antibody (NEB). […] EGF receptor (EGFr) was immunoprecipitated, followed by Western blot analysis of phospho-tyrosine (P-Tyr) or total EGFr.
To determine if ERK activation occurs on both collagen substrates (film and gel), phosphorylation of ERKs was measured using Western blot analysis and antibodies against the phosphorylated form of ERK 1/2 (New England Biolabs). […] Once plated onto collagen film, ERK phosphorylation persisted and increased slightly over the first 2 hours in culture, then gradually diminished out to 24 hours. A second peak of phosphorylation was observed by 48 hours, just prior to entry into S phase. Both peaks of phosphorylation correlated with increased ERK kinase activity as determined by in vitro kinase assays. In contrast, the initial phosphorylation subsides more rapidly in cells on collagen gel and the second peak of ERK phosphorylation was absent. […]
For orientation: In western blotting, separated proteins are transferred to a membrane and probed.

In data set [2] the test system is primary rat hepatocytes. In words: Cell counting 96 hr after plating on collagen gel (hemocytometer). Format: cell-based. To be noted: H89 3 μM. The method, then: (§2) FIG. 4. Effects of PKA inhibition on hepatocyte proliferation and differentiation. […] Medium was replaced at 96 hr and collected for analysis at 120 hr. Albumin secretion was determined by ELISA.
While growth on collagen films was also high, hepatocytes quickly become de-differentiated on collagen films.
Proliferation: Hepatocytes cultured on 35 mm dishes will be removed from plates using a combination of trypsin, collagenase, and DNAse at various times after plating. Cells are counted using a Coulter counter and hemocytometer. A cell count at 24 hour is also determined to assess the initial number of viable, attached cells. Plates are run in triplicate.

The test system of data set [3] is hepatocytes. In words: Dot blot of albumin secretion, 72 hour media samples. Format: cell-based, rat. The method, then: FIG. 6. Dot blot of albumin secretion—72 hour media samples.
The observed enhanced cell number was accompanied by NO change in albumin secretion, which is a standard measure of differentiated function. […] It also compares it to a thin film of type I collagen on which hepatocytes may proliferate but also lose differentiated function. Inhibition of PKA has little effect on DNA synthesis, cell counts, or albumin secretion in hepatocytes cultured on film.

In data set [4] the test system is primary rat hepatocytes. In words: Albumin secretion by ELISA (differentiated function). Conditions: collagen gel; text: after 48 hours in culture; H89 3 μM. Format: cell-based. On the procedure:
FIG. 4. Effects of PKA inhibition on hepatocyte proliferation and differentiation. […] Albumin secretion was determined by ELISA.
(§3) Albumin is a protein synthesized and secreted by hepatocytes and this assay is routinely used as a marker of differentiated function. […] Urea production is also maintained on collagen gel in the presence of PKA inhibition (FIG. 4C).
On the technique in general: In an ELISA, binding on a coated surface is turned into a signal by an enzyme label.

Data set [5] has as its system hepatocytes. In words: Cell counts after pulsed PKA inhibition, Example 6 (hemocytometer, Coulter counter). Format: cell-based, rat. The method, then: Coating: 60 mm plates were coated with film or 5× gel, as described above, with 4 replicates per condition. […] Culture: The cells were cultured as described above, changing media in all plates at 72 hrs, and again at 96 hrs (day 4). […] Harvest: Gel—media was removed from plates. Five mL collagenase (approx. 1 mg/ml) in PBS was added to plates and incubated for 20 minutes at 37° C. Three mL trypsin-EDTA was added directly to collagenase solution and incubated another 15 minutes at 37° C. Media was removed with a pipette and plate was washed several times with the media, before the media was collected into a 15 mL tube. Tubes were centrifuged at 1000 rpm for 10 minutes at 4° C. Supernatant was removed and pellets from each of the four replicates were resuspended in 1 mL fresh media. Tube was weighed for end volume and equalized to 1 ml later. Film—Media was removed from plates. Trypsin-EDTA was added to dishes (3 ml/dish) and dishes were incubated at 37° C. for 15 minutes. Procedure was repeated. Samples were snap frozen in ethanol at −70° C. before thawing and counting. Counting: Hemocytometer—100 μL sample was added to 900 μL trypan blue in PBS […]. Cells were counted. Repeated procedure seven times for eight total counts per sample. Coulter Counter—Added 250 μL sample to 20 mL PBS in small Coulter vessel. Counted with predetermined pre-sets, collecting 1 mL of 20 mL sample and recording result. Repeated procedure seven times for eight total counts per sample. It should be noted that the inventors also determined that a pulse of PKA inhibitor is preferable to a constant exposure to PKA. If the PKA inhibitor is left on for the entire culture period, there is no enhanced cell number, presumably due to the requirement of PKA in later stages of the cell cycle. Thus, the methodology differs slightly from our initial report in which we simply stated the inhibitor is added to the culture. In the present experiments, the inventors exposed the cells to the inhibitor on for the first 72 hours, removed it for the next 24 hours, and then added it back again.

For data set [6], the system named is primary rat hepatocytes. In words: DNA synthesis, [3H]thymidine incorporation in hepatocytes on collagen film or gel. Format: cell-based. The method, then:
as §1
Once it was confirmed that PKA activity was higher in cells cultured on gel, PKA activity was modified to assess its role in cell cycle progression.
DNA Synthesis: DNA synthesis will be measured using [^3H]-thymidine incorporation in substrate-coated 96-well plates, as previously described (Hansen 1999). DPMs will be normalized to cell number assessed in parallel plates using the CyQuant Assay (Molecular Probes).
Hepatocyte Culture: Cells are obtained by collagenase perfusion of adult Lewis rat liver (Aiken 1990), followed by purification through a Percoll gradient (Sigma, St. Louis, Mo.). Hepatocytes will be plated (12,000 cells/cm^2) in serum-free William's medium E with defined additives including EGF (10 ng/ml, Collaborative Research, Bedford, Mass.) and insulin (20 mU/ml, Sigma) (Hansen 1994).
(In general: Dividing cells build labelled thymidine or BrdU into new DNA.)

The test system of data set [7] is primary rat hepatocytes. In words: Urea production in hepatocytes on collagen gel. Format: cell-based. To be noted: with PKA inhibition (FIG. 4C: with or without H89). On the procedure: as §2, §3
In data set [8] the test system is protein kinase inhibitory peptide, PKI.

As for `Nc1ncnc2c1nc(Br)n2[C@@H]1O[C@@H]2COP(=O)(O)O[C@H]2[C@H]1O` [8-Br-cAMP], in the data set with primary rat hepatocytes [1] (collagen film), the “cell spreading on collagen film” value is reported as “significantly inhibits cell spreading”.
As to `O=S(=O)(NCCNC/C=C/c1ccc(Br)cc1)c1cccc2cnccc12` [H89, N-[2-((p-bromocinnamyl)amino)ethyl]-5-isoquinolinesulfonamide], the ERK phosphorylation result with p42/44 ERKs is “significantly enhanced”. The “increase in cell number compared to DMSO controls” value in the data set on primary rat hepatocytes [2] is recorded as 67%. Moreover, the “albumin secretion in hepatocytes cultured on film” value in the data set on hepatocytes [3] (collagen film) is given as “little effect”. For the same molecule, in the data set on hepatocytes [3] (collagen gel cultures with or without H89, 72 hours), the “albumin secretion (dot blot, not quantitated)” value is reported as “NO change”. Besides, the “cell spreading on collagen gel” value with primary rat hepatocytes [1] (collagen gel) is reported as “significant spreading”. Moreover, the “albumin secretion compared to DMSO controls” value in the data set on primary rat hepatocytes [4] was “not reduced”. In addition, the “cell counts in hepatocytes cultured on film” value in the data set with hepatocytes [5] (collagen film) was “little effect”. Further, the “higher cell number with PKA inhibition” value with hepatocytes [5] (type I collagen gel, eight days in culture, 3.3 μM H89 pulsed) is reported as 15-20%. In the data set on hepatocytes [5] (type I collagen gel, eight days, 3.3 μM H89 pulsed, p-value=0.0004), the “average increase in cell number, five experiments” value is on record as 16%±3.3%. Besides, the “cell number at four days” value in the data set with hepatocytes [5] (type I collagen gel, representative experiment (FIG. 5A)) is recorded as “no change in cell number”. For the same molecule, the “DNA synthesis on collagen gel” value in the data set on primary rat hepatocytes [6] (H89 2 μM vs DMSO, collagen gel, [3H]thymidine incorporation 48-96 hr) is reported as “significantly increased”. Further, the “DNA synthesis on collagen film” value in the data set with primary rat hepatocytes [6] (H89 2 μM vs DMSO, film-plated cells, 48-96 hr) is listed as “little effect”. In the data set on primary rat hepatocytes [6] (collagen film, Example 6 discussion), the “DNA synthesis in hepatocytes cultured on film” value is listed as “little effect”. The urea production result in the data set with primary rat hepatocytes [7] is “maintained”.
Turning to `N#CC(=C(/N)Sc1ccccc1N)/C(C#N)=C(\N)Sc1ccccc1N` [U0126], the “DNA synthesis, MEK1 inhibition during early G1” value in the data set on primary rat hepatocytes [6] (inhibitor applied during early G1) is given as “does not”. In the data set with primary rat hepatocytes [6] (inhibitor applied during late G1), the “DNA synthesis, MEK1 inhibition during late G1” value is “inhibits DNA synthesis”.
Regarding protein kinase A (PKA), the “[^32P] incorporation in the in vitro PKA kinase assay” value in [8] is “the protein kinase inhibitory peptide, PKI, specifically inhibits [^32P] incorporation”.

The values are drawn from patent US20050148073A1, “Induction of hepatocyte proliferation in vitro by inhibition of cell cycle inhibitors” (priority 2002, published 2005).
